Measurements from the NIST ThermoML archive (doi:10.1016/j.jct.2009.08.010).
± gives the expanded uncertainty stated by the source.

Assay: molar enthalpy of transition or fusion
Settings: 298.15 K; Crystal; Flow calorimetry

For `Cc1cccc2c1sc1ccccc12` [4-methyldibenzothiophene], the “molar enthalpy of transition or fusion” value was 21.6 ± 0.335 kcal/mol.
